What all share (assay type): in vivo
Test [1] concerns smallflower flatsedge (Cyperus difformis). The experiment in a line: Test B flooded paddy test. The settings on record: Rate 1000 g/ha, scale of 0 to 100 where 0 is no effect and 100 is complete control, visually evaluated after 13 to 15 days. The method, boiled down: (§1)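 Greenhouse-held for 13 to 15 days after treatment at the 2-leaf stage, paddy-grown plants were scored visually against controls on a 0-to-100 control scale; a dash marks no test result.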

Test [2] relates to duck salad (Heteranthera limosa). In words: Test B flooded paddy test. Particulars: Rate 1000 g/ha, scale of 0 to 100 where 0 is no effect and 100 is complete control, visually evaluated after 13 to 15 days. The method, boiled down:
as §1

The test system of test [3] is barnyardgrass (Echinochloa crus-galli). In words: Test B flooded paddy test. Particulars: Rate 1000 g/ha, scale of 0 to 100 where 0 is no effect and 100 is complete control, visually evaluated after 13 to 15 days. Put shortly:
as §1

A further test concerns rice (Oryza saliva). In words: Test B flooded paddy test. Particulars: Rate 1000 g/ha, scale of 0 to 100 where 0 is no effect and 100 is complete control, visually evaluated after 13 to 15 days. Put shortly:
as §1

Test [4] has as its system downy brome (Bromus tectorum). The experiment in a line: Test C postemergence. Put shortly:
(§2)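 Plants held in greenhouse for 12–14 days post-application are scored by eye against controls on a 0–100 control scale. Application timing: preemergence on sown seed, or postemergence on 2–18 cm plants.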

For test [5], the system named is goosegrass (Eleusine indica). In words: Test C postemergence. The method, boiled down: as §2
Test [6] has as its system windgrass (Apera spica-venti). The experiment in a line: Test C postemergence. The method, boiled down:
as §2

Test [7] has as its system green foxtail (Setaria viridis). In words: Test C postemergence. Put shortly: as §2
In test [8] the test system is Italian ryegrass (Lolium multiflorum). In words: Test C postemergence. The method, boiled down: as §2
Test [9] concerns blackgrass (Alopecurus myosuroides). The experiment in a line: Test C postemergence. The method, boiled down: as §2
A further test relates to wild oat (Avena fatua). The experiment in a line: Test C postemergence. Put shortly: as §2
Test [10] deals with common ragweed (Ambrosia elatior). In words: Test C postemergence. The method, boiled down: as §2
Test [11] deals with morningglory (Ipomoea hederacea). The experiment in a line: Test C postemergence. Put shortly:
as §2

Test [12] has as its system canary grass (Phalaris minor). In words: Test C postemergence. The method, boiled down: as §2
The test system of test [13] is lambsquarters (Chenopodium album). In words: Test C postemergence. Put shortly:
as §2

Test [14] concerns winter barley (Hordeum vulgare). In words: Test C postemergence. The method, boiled down:
as §2

In test [15] the test system is wheat (Triticum aestivum). The experiment in a line: Test C postemergence. Put shortly: as §2
The test system of test [16] is chickweed (Stellaria media). The experiment in a line: Test C postemergence. The method, boiled down:
as §2

Setting [17] is: Rate 125 g/ha, scale 0 to 100, 0 no effect, 100 complete control.
Where [18] appears, read: Rate 500 g/ha, scale 0 to 100 (0 no effect, 100 complete control).
Where [19] appears, read: Rate 250 g/ha, scale 0 to 100 (0 no effect, 100 complete control).

With `CC(C)(C)c1ccn(C2CCN(c3cccc(C(F)(F)F)c3)C2=S)n1` (stereo not drawn) [Compound 22], the “Plant response rating, Flatsedge” value in test [1] was 100. For the same molecule, in test [2], the “Plant response rating, Ducksalad” value worked out at 100. In addition, the “Plant response rating, Barnyardgrass” value in [3] is listed as 100. Moreover, the “Plant response rating, Rice” value in the test with rice (Oryza saliva) was determined as 90.
Consider `COc1cc(N2CCC(n3ccc(C(C)(C)C)n3)C2=O)ccc1Cl` (stereo not drawn) [Compound 117], for which the “Plant response rating, Downy Brome” value was 20 in test [4] (Rate 62 g/ha, scale 0 to 100); 40 in [4] (setting [17]); 40 in [4] (setting [18]). The “Plant response rating, Goosegrass” value in test [5] (Rate 62 g/ha, scale 0 to 100) is given as 10; in test [5] (setting [19]), 70; in test [5] (setting [18]), 100. The “Plant response rating, Windgrass” value is given as 20 in test [6] (Rate 62 g/ha, scale 0 to 100); 40 in test [6] (setting [19]); 60 in [6] (setting [18]). In addition, the “Plant response rating, Foxtail, Green” value in [7] (Rate 62 g/ha, scale 0 to 100) turned out to be 10; in test [7] (setting [19]), 30; in test [7] (setting [18]), 50. Moreover, the “Plant response rating, Ryegrass” value in test [8] (Rate 62 g/ha, scale 0 to 100) is recorded as 10; in test [8] (setting [19]), 30; in test [8] (setting [18]) it was 60. The “Plant response rating, Blackgrass” value is 0 in test [9] (Rate 62 g/ha, scale 0 to 100); 0 in test [9] (setting [17]); 20 in test [9] (setting [19]); 40 in test [9] (setting [18]). Moreover, the “Plant response rating, Wild Oat” value in the test on wild oat (Avena fatua) (Rate 62 g/ha, scale 0 to 100) came out at 30; with wild oat (Avena fatua) (setting [19]), 30; in the test with wild oat (Avena fatua) (setting [18]), 30. The “Plant response rating, Ragweed, Common” value in test [10] (setting [18]) was found to be 90. The “Plant response rating, Morningglory” value in [11] (Rate 62 g/ha, scale 0 to 100) turned out to be 100; in test [11] (setting [19]) it was 100; in test [11] (setting [18]) it was 100. Moreover, the “Plant response rating, Canarygrass” value in [12] (Rate 62 g/ha, scale 0 to 100) is recorded as 0; in [12] (setting [17]) it was 0; in test [12] (setting [19]), 20; in [12] (setting [18]) it was 20. The “Plant response rating, Lambsquarters” value in test [13] (Rate 62 g/ha, scale 0 to 100) came to 75; in test [13] (setting [19]) it was 95; in [13] (setting [18]), 100. The “Plant response rating, Barley, Winter” value in test [14] (Rate 62 g/ha, scale 0 to 100) is given as 0; in test [14] (setting [17]) it was 0; in [14] (setting [18]), 20. Besides, the “Plant response rating, Wheat” value worked out at 10 in test [15] (Rate 62 g/ha, scale 0 to 100); 10 in [15] (setting [19]); 20 in [15] (setting [18]).
As to `CCC(C)c1ccn(C2CCN(c3ccc(Cl)c(OC)c3)C2=O)n1` (stereo not drawn) [Compound 119], the “Plant response rating, Goosegrass” value in test [5] (Rate 62 g/ha, scale 0 to 100) was determined as 0; in test [5] (setting [19]) it was 0; in test [5] (setting [18]), 30. The “Plant response rating, Morningglory” value in test [11] (Rate 62 g/ha, scale 0 to 100) is 80; in test [11] (setting [19]), 100. Further, the “Plant response rating, Lambsquarters” value in test [13] (Rate 62 g/ha, scale 0 to 100) came out at 90; in test [13] (setting [19]), 90; in [13] (setting [18]), 100.
Take `CCC(CC)c1ccn(C2OCN(c3cccc(OC(F)F)c3)C2=O)n1` (stereo not drawn) [Compound 131]: the “Plant response rating, Goosegrass” value in [5] (Rate 62 g/ha, scale 0 to 100) amounted to 40; in test [5] (setting [19]), 70; in test [5] (setting [18]), 80. The “Plant response rating, Morningglory” value was found to be 80 in [11] (setting [19]) and 100 in [11] (setting [18]). Further, the “Plant response rating, Lambsquarters” value amounted to 100 in test [13] (Rate 62 g/ha, scale 0 to 100); 100 in test [13] (setting [19]); 100 in [13] (setting [18]).
With `Cc1cc(C)nc(N2CCC(n3ccc(C(C)(C)C)n3)C2=O)c1` (stereo not drawn) [Compound 138], the “Plant response rating, Flatsedge” value in test [1] is 90. Besides, the “Plant response rating, Ducksalad” value in [2] is reported as 90. For the same molecule, the “Plant response rating, Barnyardgrass” value in [3] is recorded as 100. Moreover, the “Plant response rating, Rice” value in the test with rice (Oryza saliva) is recorded as 90.
Turning to `COc1cc(N2CCC(n3ccc(C(C)C)n3)C2=O)ccc1Br` (stereo not drawn) [Compound 140], the “Plant response rating, Goosegrass” value in test [5] (Rate 62 g/ha, scale 0 to 100) is 20; in test [5] (setting [19]), 80. Further, the “Plant response rating, Ragweed, Common” value is recorded as 50 in [10] (Rate 62 g/ha, scale 0 to 100); 90 in test [10] (setting [19]); 90 in test [10] (setting [18]). In addition, the “Plant response rating, Morningglory” value stood at 60 in [11] (Rate 62 g/ha, scale 0 to 100); 100 in test [11] (setting [19]); 100 in test [11] (setting [18]). Moreover, the “Plant response rating, Chickweed” value came to 90 in [16] (Rate 62 g/ha, scale 0 to 100) and 100 in test [16] (setting [17]). Moreover, the “Plant response rating, Lambsquarters” value was 80 in test [13] (Rate 62 g/ha, scale 0 to 100); 90 in test [13] (setting [19]); 100 in test [13] (setting [18]).
Turning to `COc1cc(N2CCC(n3ccc(C(C)(C)C)n3)C2=O)ccc1Br` (stereo not drawn) [Compound 141], the “Plant response rating, Goosegrass” value in test [5] (Rate 62 g/ha, scale 0 to 100) amounted to 20; in [5] (setting [19]) it was 50; in test [5] (setting [18]) it was 70. In addition, the “Plant response rating, Ragweed, Common” value in [10] (Rate 62 g/ha, scale 0 to 100) was found to be 20; in test [10] (setting [19]) it was 80; in test [10] (setting [18]), 90. Also, the “Plant response rating, Morningglory” value in test [11] (Rate 62 g/ha, scale 0 to 100) is recorded as 70; in [11] (setting [18]), 100. For the same molecule, the “Plant response rating, Chickweed” value in test [16] (Rate 62 g/ha, scale 0 to 100) stood at 90; in test [16] (setting [17]), 100; in [16] (setting [19]) it was 100; in test [16] (setting [18]), 100. In addition, the “Plant response rating, Lambsquarters” value in [13] (Rate 62 g/ha, scale 0 to 100) worked out at 70; in [13] (setting [18]), 100.
`CCC(C)c1ccn(C2CCN(c3ccc(Br)c(OC)c3)C2=O)n1` (stereo not drawn) [Compound 142]: the “Plant response rating, Goosegrass” value in [5] (Rate 62 g/ha, scale 0 to 100) worked out at 30; in test [5] (setting [19]), 50; in test [5] (setting [18]), 70. Also, the “Plant response rating, Ragweed, Common” value in [10] (Rate 62 g/ha, scale 0 to 100) came out at 50; in [10] (setting [19]), 90; in test [10] (setting [18]), 100. Further, the “Plant response rating, Morningglory” value in [11] (Rate 62 g/ha, scale 0 to 100) turned out to be 20; in test [11] (setting [19]), 100; in test [11] (setting [18]), 100. For the same molecule, the “Plant response rating, Chickweed” value in test [16] (setting [17]) came out at 100. Also, the “Plant response rating, Lambsquarters” value in [13] (Rate 62 g/ha, scale 0 to 100) amounted to 80; in [13] (setting [19]) it was 100; in test [13] (setting [18]), 100.
For the molecule `CCC(CC)c1ccn(C2CCN(c3ccc(Br)c(OC)c3)C2=O)n1` (stereo not drawn) [Compound 143], the “Plant response rating, Goosegrass” value in test [5] (Rate 62 g/ha, scale 0 to 100) is given as 30; in test [5] (setting [19]) it was 60; in test [5] (setting [18]), 70. The “Plant response rating, Ragweed, Common” value in test [10] (Rate 62 g/ha, scale 0 to 100) amounted to 20; in test [10] (setting [19]), 90; in test [10] (setting [18]) it was 90. In addition, the “Plant response rating, Morningglory” value in test [11] (Rate 62 g/ha, scale 0 to 100) is recorded as 90; in [11] (setting [19]) it was 100; in test [11] (setting [18]) it was 100. Also, the “Plant response rating, Chickweed” value amounted to 100 in test [16] (Rate 62 g/ha, scale 0 to 100) and 100 in test [16] (setting [17]). Also, the “Plant response rating, Lambsquarters” value in test [13] (Rate 62 g/ha, scale 0 to 100) is given as 90; in [13] (setting [19]), 90; in test [13] (setting [18]), 100.
